Publication PMC9127186, “Molecular Basis Underlying Hepatobiliary and Renal Excretion of Phenolic Acids of Salvia miltiorrhiza Roots (Danshen)” (Frontiers in Pharmacology, 2022)
Read-outs that look alike come from different tables or passages of the source.

Assays:
[1] = biological target: T1, rat Pept2 (Rattus norvegicus, UniProt Q63424); experiment: Cellular transport assay, HEK-293 cells expressing rat Pept2; settings: Danshen phenolic acid at 100 μM final concentration, 10 min, incubation pH 6.0; rat Pept2-transfected vs mock cells
T1 sequence (Q63424 1-729): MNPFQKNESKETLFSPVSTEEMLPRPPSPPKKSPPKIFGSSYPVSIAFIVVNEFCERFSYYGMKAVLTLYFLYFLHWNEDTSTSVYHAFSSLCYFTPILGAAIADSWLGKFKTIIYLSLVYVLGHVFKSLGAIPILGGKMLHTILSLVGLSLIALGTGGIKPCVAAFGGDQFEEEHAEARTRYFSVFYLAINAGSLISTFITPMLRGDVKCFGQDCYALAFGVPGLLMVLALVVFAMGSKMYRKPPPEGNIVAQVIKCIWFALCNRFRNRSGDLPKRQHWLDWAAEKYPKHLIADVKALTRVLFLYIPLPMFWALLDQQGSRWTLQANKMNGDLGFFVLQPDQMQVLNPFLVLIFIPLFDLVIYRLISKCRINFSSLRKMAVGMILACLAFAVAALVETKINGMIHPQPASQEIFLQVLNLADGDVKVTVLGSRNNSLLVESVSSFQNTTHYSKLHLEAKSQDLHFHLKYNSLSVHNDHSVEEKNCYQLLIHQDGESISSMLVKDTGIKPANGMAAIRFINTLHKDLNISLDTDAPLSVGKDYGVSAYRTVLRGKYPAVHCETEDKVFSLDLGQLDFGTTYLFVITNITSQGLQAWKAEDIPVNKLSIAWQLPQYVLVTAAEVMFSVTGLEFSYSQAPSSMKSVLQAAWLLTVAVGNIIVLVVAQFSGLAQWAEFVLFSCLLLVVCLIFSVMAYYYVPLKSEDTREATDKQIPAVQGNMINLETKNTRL

[2] = biological target: T2, rat Oct1 (Rattus norvegicus, UniProt Q63089); experiment: Cellular transport assay, HEK-293 cells expressing rat Oct1; settings: Danshen phenolic acid at 100 μM final concentration, 10 min; rat Oct1-transfected vs mock cells
T2 sequence (Q63089 1-556): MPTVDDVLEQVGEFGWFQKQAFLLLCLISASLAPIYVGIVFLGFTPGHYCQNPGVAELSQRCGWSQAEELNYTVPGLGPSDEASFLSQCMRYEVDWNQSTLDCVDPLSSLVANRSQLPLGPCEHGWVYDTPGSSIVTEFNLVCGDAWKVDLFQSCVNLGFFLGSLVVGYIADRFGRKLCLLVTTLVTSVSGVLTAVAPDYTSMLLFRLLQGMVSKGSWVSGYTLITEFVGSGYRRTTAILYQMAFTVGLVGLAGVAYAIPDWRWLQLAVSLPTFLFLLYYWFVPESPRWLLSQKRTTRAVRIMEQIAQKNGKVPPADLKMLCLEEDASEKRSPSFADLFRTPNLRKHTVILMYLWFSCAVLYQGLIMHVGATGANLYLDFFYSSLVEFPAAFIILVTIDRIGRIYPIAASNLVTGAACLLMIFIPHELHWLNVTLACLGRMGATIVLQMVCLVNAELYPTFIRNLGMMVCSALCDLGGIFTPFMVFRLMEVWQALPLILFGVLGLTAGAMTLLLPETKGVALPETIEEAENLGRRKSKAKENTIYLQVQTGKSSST

[3] = biological target: T3, human OCT2 (Homo sapiens, UniProt O15244); experiment: Cellular transport assay, HEK-293 cells expressing human OCT2; settings: Danshen phenolic acid at 100 μM final concentration, 10 min; human OCT2-transfected vs mock cells
T3 sequence (O15244 1-555): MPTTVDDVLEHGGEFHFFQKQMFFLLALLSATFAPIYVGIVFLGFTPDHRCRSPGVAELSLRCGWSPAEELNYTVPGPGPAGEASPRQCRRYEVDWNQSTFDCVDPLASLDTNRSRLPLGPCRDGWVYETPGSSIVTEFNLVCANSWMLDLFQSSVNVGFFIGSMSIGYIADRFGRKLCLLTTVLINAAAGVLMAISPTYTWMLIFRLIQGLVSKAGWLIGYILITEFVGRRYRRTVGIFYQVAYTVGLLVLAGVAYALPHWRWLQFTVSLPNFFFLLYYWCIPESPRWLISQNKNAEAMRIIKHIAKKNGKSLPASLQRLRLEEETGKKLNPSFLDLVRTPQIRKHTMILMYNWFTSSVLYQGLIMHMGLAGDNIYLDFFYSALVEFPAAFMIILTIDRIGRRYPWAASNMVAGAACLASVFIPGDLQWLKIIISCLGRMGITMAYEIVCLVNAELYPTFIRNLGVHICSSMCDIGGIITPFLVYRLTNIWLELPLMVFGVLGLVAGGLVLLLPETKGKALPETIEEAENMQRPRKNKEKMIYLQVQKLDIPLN

[4] = biological target: T4, human PEPT1 (Homo sapiens, UniProt P46059); experiment: Cellular transport assay, HEK-293 cells expressing human PEPT1; settings: Danshen phenolic acid at 100 μM final concentration, 10 min, incubation pH 6.0; human transporter PEPE1 [sic], transfected vs mock cells
T4 sequence (P46059 1-708): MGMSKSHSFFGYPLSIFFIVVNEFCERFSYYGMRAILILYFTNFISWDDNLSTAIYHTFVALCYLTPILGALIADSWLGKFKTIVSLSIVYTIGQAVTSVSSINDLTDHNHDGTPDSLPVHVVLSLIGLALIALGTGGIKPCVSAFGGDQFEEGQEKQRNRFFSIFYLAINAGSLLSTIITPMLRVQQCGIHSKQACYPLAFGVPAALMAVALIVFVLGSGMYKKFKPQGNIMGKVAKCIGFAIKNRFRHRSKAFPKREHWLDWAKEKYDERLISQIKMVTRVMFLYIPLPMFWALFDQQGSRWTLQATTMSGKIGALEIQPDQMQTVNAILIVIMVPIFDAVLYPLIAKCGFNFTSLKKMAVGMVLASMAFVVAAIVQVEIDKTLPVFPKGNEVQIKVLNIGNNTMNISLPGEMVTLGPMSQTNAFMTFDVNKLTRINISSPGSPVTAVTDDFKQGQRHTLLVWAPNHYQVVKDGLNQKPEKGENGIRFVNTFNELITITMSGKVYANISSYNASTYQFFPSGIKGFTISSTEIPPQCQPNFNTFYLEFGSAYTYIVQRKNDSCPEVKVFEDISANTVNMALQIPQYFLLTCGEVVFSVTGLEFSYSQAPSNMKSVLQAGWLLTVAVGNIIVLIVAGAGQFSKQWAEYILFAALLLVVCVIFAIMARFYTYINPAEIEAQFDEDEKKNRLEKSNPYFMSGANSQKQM

[5] = biological target: T4, human PEPT1; settings: 10 min, 100 μM, pH 6
[6] = biological target: T1, rat Pept2; settings: 10 min, 100 μM, pH 6

Molecule: O=C(/C=C/c1ccc(O)c2c1[C@H](C(=O)O)[C@@H](c1ccc(O)c(O)c1)O2)O[C@H](Cc1ccc(O)c(O)c1)C(=O)O [Lithospermic acid, lithospermic acid]
- TransportTC/TransportMC ratio (net transport ratio) [1]: 0.85 ± 0.14
- TransportTC/TransportMC ratio (net transport ratio) [2]: 1.18 ± 0.06
- TransportTC/TransportMC ratio (net transport ratio) [3]: 0.89 ± 0.31
- TransportTC/TransportMC ratio (net transport ratio) [4]: 1.86 ± 0.36

Molecule: O=C(O)c1ccc(O)c(O)c1 [Protocatechuic acid, protocatechuic acid]
- TransportTC/TransportMC ratio (net transport ratio) [1]: 1.21 ± 0.26
- TransportTC/TransportMC ratio (net transport ratio) [2]: 1.19 ± 0.41
- TransportTC/TransportMC ratio (net transport ratio) [3]: 0.75 ± 0.35
- TransportTC/TransportMC ratio (net transport ratio) [4]: 0.93 ± 0.34

Molecule: O=C(/C=C/c1ccc(O)c(O)c1)O[C@H](Cc1ccc(O)c(O)c1)C(=O)O [Rosmarinic acid, rosmarinic acid]
- TransportTC/TransportMC ratio (net transport ratio) [5]: 1.42 ± 0.53
- TransportTC/TransportMC ratio (net transport ratio) [6]: 0.84 ± 0.17

Molecule: O=C(/C=C/c1ccc(O)c(O)c1/C=C/c1ccc(O)c(O)c1)O[C@H](Cc1ccc(O)c(O)c1)C(=O)O [Salvianolic acid A, salvianolic acid A]
- TransportTC/TransportMC ratio (net transport ratio) [5]: 1.45 ± 0.27
- TransportTC/TransportMC ratio (net transport ratio) [6]: 0.84 ± 0.19

Molecule: O=C(O)Cc1c(/C=C/C(=O)O[C@H](Cc2ccc(O)c(O)c2)C(=O)O)ccc(O)c1O [Salvianolic acid D, salvianolic acid D]
- TransportTC/TransportMC ratio (net transport ratio) [1]: 1.88 ± 0.45
- TransportTC/TransportMC ratio (net transport ratio) [2]: 1.23 ± 0.54
- TransportTC/TransportMC ratio (net transport ratio) [3]: 0.85 ± 0.26
- TransportTC/TransportMC ratio (net transport ratio) [4]: 1.06 ± 0.20

Molecule: salvianolic acid B
- TransportTC/TransportMC ratio (net transport ratio) [1]: 0.94 ± 0.21
- TransportTC/TransportMC ratio (net transport ratio) [2]: 0.66 ± 0.17
- TransportTC/TransportMC ratio (net transport ratio) [3]: 0.75 ± 0.23
- TransportTC/TransportMC ratio (net transport ratio) [4]: 2.05 ± 0.22
